These are literature values, as cited in patent US10266741B2, “Apparatus and method for addition of ADH enzyme inhibitors to existing engine cooling systems” (priority 2016, dated 2019).

The structures appear in SMILES notation.

The data set deals with humans. The conditions noted are these: ingestion, Federal Register Vol. 63, No. 27, Feb. 10, 1998.

For `OCCO` [EG, ethylene glycol], the “known toxin to humans at relatively low levels (reported as low as)” value is 1,570 mg/kg.
